Patent US4366148A, “Use of somatostatin in the prevention and cure of vascular, membrane, or organ lesions” (Brigham and Women's Hospital, priority 1981, dated 1982)
Numbered stars: 1 amine (or outer) side, 2 acyl side, 3 side chain; on linkers, the order of the positions; unused ones are H or OH. Bridge positions count the residues as written; N and C are the ends. Square brackets hold non-standard residues; d marks the D form. Peptide text beside a SMILES is read from it. Trp(2-yl) = O=C([C@H](Cc1c([*:3])[nH]c2ccccc12)N[*:1])[*:2]; Leu(4R-OH,5-OH) = C[C@](O)(CO)C[C@H](N)C(=O)O; cisHyp = O=C(O)[C@@H]1C[C@H](O)CN1

Key:
rats given phalloidin [1] = test: Toxicity of phalloidin: hemorrhagic liver lesions and mortality after pretreatment; assay type: in vivo, Sprague-Dawley rat; conditions: for Hepatic lesions (Scale: 0-3) / Mortality (%): pretreatment before phalloidin 0.12 mg/100 g i.p.; for Hepatic lesions (Scale: 0-3): 0=normal, 3=enlargement and uniform hemorrhage of whole liver; for Mortality (%): observed up to 24 hr; for protective effect against phalloidin toxicity (lesions, mortality), in words: rats given phalloidin 0.12 mg/100 g i.p.
Description: In the present studies, Sprague-Dawley rats with an initial body weight of about 200 g had free access to Purina lab chow and tap water. Each control and experimental group consisted of 3-5 animals; every experiment was performed at least twice and the results were pooled.
Somatostatin (250 μg in 1 ml of protamine sulfate and ZnCl2 suspension) was injected s.c. 30 min before and 30 min after the administration of phalloidin (0.12 mg/100 g i.p.). In addition, 10 min before the toxin, another dose of 250 μg of somatostatin in 1 ml of distilled water was given i.p. Other groups of rats also received the sulfhydryl blocker N-ethylmaleimide (alone or in combination with somatostatin), 2 mg/100 g s.c. 20 min before and 40 min after phalloidin. A --SH free agalogue of somatostatin was used instead of the regular somatostatin in the same dose and at the same time in some experiments. This --SH free analogus was Di-S-tBu-Somatostatin, in which the hydrogens of the --SH groups (cystein) were replaced with t-butyl groups. […] The hemorrhagic liver lesions were evaluated on a scale of 0-3, where 0=normal, 1=multifocal (1-5 mm) hemorrhages, 2=large hemorrhagic areas entirely involving one lobe (usually the left and/or medium), 3=enlargement and uniform hemorrhage involving the whole liver.

[2] = test system: hepatic blood vessels of rats given phalloidin; test: Hepatic uptake of Evans blue after phalloidin (vascular and hepatic membrane lesions); assay type: in vivo, Sprague-Dawley rat; conditions: for Evans blue (μg/g liver): Evans blue 1 mg/100 g i.v. 15 min before autopsy, somatostatin 250 μg s.c. 30 and 10 min before phalloidin; for hepatic uptake of Evans blue, in words: rats given phalloidin with or without somatostatin
Description: (§1) In the biochemical experiments, the animals were also injected with Evans blue 15 min before autopsy. At autopsy the portal vein was perfused in situ with 20 ml of saline to remove blood from hepatic vasculature. […] In the morphologic experiments, groups of rats were also injected with colloidal carbon (India ink, 0.1 mg/100 g i.v.) 15 min before autopsy. At that time pieces of liver were processed for subsequent light or electron microscopic studies. […] In rats given phalloidin, carbon labeling of sinusoidal macrophages was decreased in the centrilobular areas, while early deposits of carbon were seen along the sinusoidal walls in the periportal regions. […] As opposed to controls, carbon particles were also seen beyond endothelial cells and in Disse space soon after phalloidin injection. Subsequently, vacuolation of hepatocytes and increased amount of extravascular plasma-like material were noticed.
In all of the experiments, female or male Sprague-Dawley rats (150-200 g) were used. The animals were given free access to Purina lab chow and tap water. Each group consisted of at least 3-4 rats; every experiment was repeated at least twice and the results were pooled.
Control animals were injected with normal saline 30 min prior to sacrifice and autopsy. Animals treated with phalloidin alone were injected i.p. with 0.12 mg/100 g body weight 15 min, 30 min, or 60 min before sacrifice and autopsy. Animals treated with both phalloidin and somatostatin received phalloidin as above in addition to 250 μg s.c. somatostatin at 30 and 10 minutes before the phalloidin injection. The first somatostatin injection was dissolved in 1 ml of solution consisting of 0.5 ml of 0.1% protamine sulfate and 0.5 ml of ZnCl2, 250-260 μg/ml. The second somatostatin injection was given in normal saline. In addition, rats of all groups were given Evans blue, 1 mg/100 g i.v., 15 min before sacrifice and autopsy. Livers were prefused with 20 ml of saline in situ through the protal vein to remove intravascular dye prior to measuring dye uptake by the liver tissue.
A one gram sample from the left lobe was measured spectrophotometrically to determine the uptake of Evans blue dye in μg/g liver tissue.

rats given phalloidin [3] = test: Model study: phalloidin intoxication of rats, mortality, liver weight, histology; assay type: in vivo, rat; conditions: for liver histology (light microscopy): phalloidin-intoxicated rats, with or without somatostatin
Description: This toxin kills rats within about 4 hours after intraperitoneal injection. Rats injected with phalloidin show a massive increase in liver size accompanied by hemorrhage. In a control group of rats given phalloidin but no somatostatin, 22 or 24 rats died within 2-4 hours. […] In the test group of 26 animals that were treated with both phalloidin and somatostatin, only 8 rats died. Furthermore, only a 30% average increase in liver weight was found in 10 animals treated with somatostatin and phalloidin and sacrificed four hours after intoxication.

[4] = test system: liver of rats given phalloidin; test: Morphologic experiments: colloidal carbon (India ink) labeling of liver, light and electron microscopy; assay type: in vivo, rat
Description: In both cases, rats were given saline (control), phalloidin alone, or phalloidin and somatostatin. Somatostatin was given in subcutaneous injections in a solution of protamine sulfate and zinc chloride in order to prolong its effectiveness, or in normal saline.
as §1

[5] = test system: experimentally-induced pancreatitis; conditions: in vivo; cited from earlier work
[6] = test system: cysteamine-induced duodenal ulcer; conditions: pretreatment with exogenous somatostatin; cited from earlier work
adrenal and lung lesions = conditions: in vivo; cited from earlier work
[7] = 15 min after phalloidin 0.12 mg/100 g i.p.
[8] = 30 min after phalloidin 0.12 mg/100 g i.p.
[9] = 60 min after phalloidin 0.12 mg/100 g i.p.

CCN1C(=O)C=CC1=O [N--Ethylmaleimide (N--EM), N-ethylmaleimide]
Hepatic lesions (Scale: 0-3) (rats given phalloidin [1]): 2.3 ± 0.2 | Mortality (%) (rats given phalloidin [1]): 90% | protective effect against phalloidin toxicity (lesions, mortality), in words (rats given phalloidin [1]; listed as N-ethylmaleimide): counteracted the protective action of regular somatostatin | protective effect against phalloidin toxicity (lesions, mortality), in words (rats given phalloidin [1]; listed as N-ethylmaleimide (N-EM)): counteracted the beneficial effect of somatostatin

C[C@@H]1NC(=O)[C@H](C[C@@](C)(O)CO)NC(=O)[C@@H]2Cc3c([nH]c4ccccc34)SC[C@H](NC(=O)[C@@H]([C@H](C)O)NC1=O)C(=O)N1C[C@@H](O)C[C@H]1C(=O)N[C@@H](C)C(=O)N2 [Phalloidin, phalloidin] (cyclo(A[dT]C[cisHyp]A[Trp(2-yl)][Leu(4R-OH,5-OH)]); thioether 3-6)
Evans blue (μg/g liver) [2, 7]: 11.21 ± 2.40 μg/g liver | Evans blue (μg/g liver) [2, 8]: 28.50 ± 4.67 μg/g liver | Evans blue (μg/g liver) [2, 9]: 51.08 ± 13.56 μg/g liver | hepatic uptake of Evans blue, in words [2]: time dependent increase | time within which the toxin kills rats (rats given phalloidin [3]; after intraperitoneal injection): ≤ 4 h | average increase in liver weight, phalloidin alone (rats given phalloidin [3]; autopsy of rats that died after phalloidin alone): 70% | rats died, phalloidin but no somatostatin (rats given phalloidin [3]; control group of 24 rats given phalloidin alone): 22 rats | time within which control rats died (rats given phalloidin [3]; control group, phalloidin but no somatostatin): 2 to 4 h | liver histology (light microscopy) (rats given phalloidin [3]): vacuolization of hepatocytes, congestion, and hemorrhagic necrosis

Somatostatin
Evans blue (μg/g liver) [2, 7]: 7.17 ± 0.64 μg/g liver | Evans blue (μg/g liver) [2, 8]: 16.93 ± 4.76 μg/g liver | Evans blue (μg/g liver) [2, 9]: 15.50 ± 4.65 μg/g liver | hepatic uptake of Evans blue, in words [2]: virtually abolished this enhanced uptake | hepatic uptake of Evans blue, in words ([2]; listed as somatostatin): prevented or significantly decreased | average increase in liver weight, somatostatin and phalloidin (rats given phalloidin [3]; 10 animals sacrificed four hours after intoxication): 30% | liver histology (light microscopy) (rats given phalloidin [3]): only mild vacuolization of hepatocytes and slight congestion | rats died, phalloidin and somatostatin (rats given phalloidin [3]; test group of 26 animals treated with both phalloidin and somatostatin): 8 rats | Hepatic lesions (Scale: 0-3) (rats given phalloidin [1]): 0.7 ± 0.2 | Mortality (%) (rats given phalloidin [1]): 20% | protective effect against phalloidin toxicity (lesions, mortality), in words (rats given phalloidin [1]): significantly diminished | distribution of India ink / carbon labeling of sinusoidal walls, light microscopy ([4]; colloidal carbon 0.1 mg/100 g i.v. 15 min before autopsy, after phalloidin): virtually abolished the carbon labeling of sinusoidal walls | electron microscopic changes (endothelial breakdown, extravascular carbon, vacuolation of hepatocytes) ([4]; livers of rats given somatostatin and phalloidin): markedly diminished or absent | effect on experimentally-induced pancreatitis [5]: beneficial effect | cysteamine-induced duodenal ulcer [6]: prevents | gastric acid output [6]: minimal inhibition | effect on adrenal and lung lesions (adrenal and lung lesions): beneficial effect

Di-S-tBu-Somatostatin [di-S--tBu-Somatostatin]
Hepatic lesions (Scale: 0-3) (rats given phalloidin [1]): 2.7 ± 0.2 | Mortality (%) (rats given phalloidin [1]): 92% | protective effect against phalloidin toxicity (lesions, mortality), in words (rats given phalloidin [1]; listed as somatostatin analogue without thiol groups): inactive | protective effect against phalloidin toxicity (lesions, mortality), in words (rats given phalloidin [1]; listed as sulfhydryl-free derivative of somatostatin): without effect
